Measured values published in ChEMBL document CHEMBL3132769, “Fragment growing to retain or alter the selectivity of anchored kinase hinge-binding fragments” (Medchemcomm, 2014).

Tests used:
[1] = molecular target: Epidermal growth factor receptor (Homo sapiens) (UniProt P00533); test: Inhibition of human EGFR catalytic domain expressed in baculovirus assessed as substrate phosphorylation using fluorescence-labelled peptides as substrate at 0.2 uM after 90 mins by microfluidic peptide phosphorylation assay
[2] = molecular target: T1, Protein kinase C zeta type (Homo sapiens) (UniProt Q05513); test: Inhibition of human full length PKC zeta expressed in baculovirus assessed as substrate phosphorylation using fluorescence-labelled peptides as substrate at 0.2 uM after 90 mins by microfluidic peptide phosphorylation assay
T1 sequence (whole entry): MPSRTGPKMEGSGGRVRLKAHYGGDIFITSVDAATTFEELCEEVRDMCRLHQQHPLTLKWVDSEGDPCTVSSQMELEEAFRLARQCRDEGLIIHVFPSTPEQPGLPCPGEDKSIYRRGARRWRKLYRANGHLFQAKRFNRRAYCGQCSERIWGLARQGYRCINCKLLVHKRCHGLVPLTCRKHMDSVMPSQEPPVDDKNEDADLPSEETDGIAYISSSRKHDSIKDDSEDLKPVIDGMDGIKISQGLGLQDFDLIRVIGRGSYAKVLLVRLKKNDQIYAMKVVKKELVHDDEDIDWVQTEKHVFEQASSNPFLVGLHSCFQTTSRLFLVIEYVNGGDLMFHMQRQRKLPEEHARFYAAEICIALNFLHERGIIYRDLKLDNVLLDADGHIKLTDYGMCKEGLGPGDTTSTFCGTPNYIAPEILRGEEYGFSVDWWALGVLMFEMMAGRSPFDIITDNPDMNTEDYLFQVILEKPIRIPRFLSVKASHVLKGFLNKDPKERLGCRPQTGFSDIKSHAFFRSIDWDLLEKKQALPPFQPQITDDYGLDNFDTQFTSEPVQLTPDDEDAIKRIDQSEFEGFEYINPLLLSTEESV

[3] = molecular target: Protein kinase C beta type (Homo sapiens) (UniProt P05771); test: Inhibition of human full length PKC beta2 expressed in baculovirus assessed as substrate phosphorylation using fluorescence-labelled peptides as substrate at 0.2 uM after 90 mins by microfluidic peptide phosphorylation assay
[4] = molecular target: Serine/threonine-protein kinase pim-1 (Homo sapiens) (UniProt P11309); test: Inhibition of human full length PIM1 expressed in baculovirus assessed as substrate phosphorylation using fluorescence-labelled peptides as substrate at 8 uM after 90 mins by microfluidic peptide phosphorylation assay
[5] = molecular target: RAF proto-oncogene serine/threonine-protein kinase (Homo sapiens) (UniProt P04049); test: Inhibition of human truncated c-Raf expressed in baculovirus assessed as substrate phosphorylation using fluorescence-labelled peptides as substrate at 8 uM after 90 mins by microfluidic peptide phosphorylation assay
[6] = molecular target: Fibroblast growth factor receptor 2 (Homo sapiens) (UniProt P21802); test: Inhibition of human FGFR2 catalytic domain expressed in baculovirus assessed as substrate phosphorylation using fluorescence-labelled peptides as substrate at 2 uM after 90 mins by microfluidic peptide phosphorylation assay
[7] = molecular target: T2, cGMP-dependent protein kinase 1 (Homo sapiens) (UniProt Q13976); test: Inhibition of human full length PKG-1a expressed in baculovirus assessed as substrate phosphorylation using fluorescence-labelled peptides as substrate at 1000 uM after 90 mins by microfluidic peptide phosphorylation assay
T2 sequence (whole entry): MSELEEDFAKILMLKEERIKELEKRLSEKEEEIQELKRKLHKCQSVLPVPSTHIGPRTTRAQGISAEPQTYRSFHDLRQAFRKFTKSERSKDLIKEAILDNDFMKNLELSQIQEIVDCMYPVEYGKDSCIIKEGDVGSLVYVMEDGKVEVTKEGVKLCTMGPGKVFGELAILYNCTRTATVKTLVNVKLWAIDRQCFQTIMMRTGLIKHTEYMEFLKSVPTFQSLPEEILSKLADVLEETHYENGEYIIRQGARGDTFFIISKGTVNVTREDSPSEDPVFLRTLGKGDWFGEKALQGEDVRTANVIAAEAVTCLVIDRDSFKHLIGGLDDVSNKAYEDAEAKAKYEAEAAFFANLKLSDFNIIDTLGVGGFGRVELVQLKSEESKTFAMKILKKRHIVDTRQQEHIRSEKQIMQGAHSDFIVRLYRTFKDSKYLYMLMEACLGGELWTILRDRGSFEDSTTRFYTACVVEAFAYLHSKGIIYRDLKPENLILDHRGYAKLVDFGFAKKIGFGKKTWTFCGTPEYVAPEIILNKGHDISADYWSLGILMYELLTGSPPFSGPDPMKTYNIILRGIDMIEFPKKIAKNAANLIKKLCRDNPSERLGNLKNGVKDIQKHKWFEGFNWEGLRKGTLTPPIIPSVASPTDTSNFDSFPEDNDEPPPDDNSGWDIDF

[8] = molecular target: Ribosomal protein S6 kinase alpha-2 (Homo sapiens) (UniProt Q15349); test: Inhibition of human full length RSK3 expressed in baculovirus assessed as substrate phosphorylation using fluorescence-labelled peptides as substrate at 1000 uM after 90 mins by microfluidic peptide phosphorylation assay
[9] = molecular target: Tyrosine-protein kinase HCK (Homo sapiens) (UniProt P08631); test: Inhibition of human HCK catalytic domain expressed in baculovirus assessed as substrate phosphorylation using fluorescence-labelled peptides as substrate at 0.06 uM after 90 mins by microfluidic peptide phosphorylation assay
[10] = molecular target: Mitogen-activated protein kinase 1 (Homo sapiens) (UniProt P28482); test: Inhibition of human full length ERK2 expressed in Escherichia coli cell assessed as substrate phosphorylation using fluorescence-labelled peptides as substrate at 420 uM after 90 mins by microfluidic peptide phosphorylation assay
[11] = system: Tyrosine-protein kinase ABL1 (Homo sapiens), P00519 [T315I]; test: Inhibition of human truncated ABL T315I mutant expressed in baculovirus assessed as substrate phosphorylation using fluorescence-labelled peptides as substrate at 9 uM after 90 mins by microfluidic peptide phosphorylation assay
[12] = molecular target: MAP kinase-activated protein kinase 2 (Homo sapiens) (UniProt P49137); test: Inhibition of human full length MAPKAPK2 expressed in baculovirus assessed as substrate phosphorylation using fluorescence-labelled peptides as substrate at 70 uM after 90 mins by microfluidic peptide phosphorylation assay
Chain of MAP kinase-activated protein kinase 2 (Homo sapiens) (P49137 whole entry, looked up): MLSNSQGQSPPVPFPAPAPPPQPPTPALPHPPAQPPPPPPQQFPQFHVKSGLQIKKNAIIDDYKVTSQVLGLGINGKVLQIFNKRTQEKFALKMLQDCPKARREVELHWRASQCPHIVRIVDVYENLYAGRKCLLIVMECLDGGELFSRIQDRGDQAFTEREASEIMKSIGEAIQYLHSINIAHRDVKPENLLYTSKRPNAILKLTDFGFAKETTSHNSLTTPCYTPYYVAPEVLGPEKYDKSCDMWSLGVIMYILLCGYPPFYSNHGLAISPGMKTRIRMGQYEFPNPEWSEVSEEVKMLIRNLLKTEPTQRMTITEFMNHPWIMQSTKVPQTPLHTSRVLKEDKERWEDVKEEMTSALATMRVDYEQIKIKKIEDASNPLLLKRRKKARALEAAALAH

Chain of Epidermal growth factor receptor (Homo sapiens) (P00533 whole entry, the tested form may be a part): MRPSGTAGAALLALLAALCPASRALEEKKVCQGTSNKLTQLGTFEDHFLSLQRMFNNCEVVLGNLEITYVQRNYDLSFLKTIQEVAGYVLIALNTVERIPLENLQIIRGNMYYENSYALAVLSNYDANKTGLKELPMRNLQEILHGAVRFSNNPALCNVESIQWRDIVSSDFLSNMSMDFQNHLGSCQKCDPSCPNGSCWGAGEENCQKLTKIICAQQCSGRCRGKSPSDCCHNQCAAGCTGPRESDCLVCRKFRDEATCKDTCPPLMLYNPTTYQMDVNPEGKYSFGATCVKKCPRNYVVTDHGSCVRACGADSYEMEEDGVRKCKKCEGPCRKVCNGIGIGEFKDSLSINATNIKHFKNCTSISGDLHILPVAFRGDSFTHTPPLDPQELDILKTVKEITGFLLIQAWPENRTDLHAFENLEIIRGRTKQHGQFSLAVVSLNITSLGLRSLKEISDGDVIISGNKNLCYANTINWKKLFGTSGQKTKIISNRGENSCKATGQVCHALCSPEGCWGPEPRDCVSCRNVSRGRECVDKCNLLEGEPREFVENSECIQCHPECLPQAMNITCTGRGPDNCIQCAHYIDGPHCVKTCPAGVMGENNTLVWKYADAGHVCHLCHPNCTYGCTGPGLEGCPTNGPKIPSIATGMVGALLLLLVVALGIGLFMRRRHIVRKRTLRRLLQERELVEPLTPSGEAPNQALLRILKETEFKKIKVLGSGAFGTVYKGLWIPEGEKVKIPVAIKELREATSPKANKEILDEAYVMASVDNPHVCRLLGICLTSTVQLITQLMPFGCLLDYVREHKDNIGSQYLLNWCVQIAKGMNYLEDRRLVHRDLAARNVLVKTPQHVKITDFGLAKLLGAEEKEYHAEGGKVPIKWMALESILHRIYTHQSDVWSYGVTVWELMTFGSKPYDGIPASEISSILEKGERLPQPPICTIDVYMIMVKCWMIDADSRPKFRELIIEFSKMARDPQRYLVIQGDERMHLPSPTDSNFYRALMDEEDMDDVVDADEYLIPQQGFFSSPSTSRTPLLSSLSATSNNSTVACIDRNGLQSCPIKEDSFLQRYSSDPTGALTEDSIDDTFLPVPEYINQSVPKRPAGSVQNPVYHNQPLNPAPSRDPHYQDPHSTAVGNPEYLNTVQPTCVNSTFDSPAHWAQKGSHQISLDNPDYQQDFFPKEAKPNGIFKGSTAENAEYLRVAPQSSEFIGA
Chain of RAF proto-oncogene serine/threonine-protein kinase (Homo sapiens) (P04049 whole entry, the tested form may be a part): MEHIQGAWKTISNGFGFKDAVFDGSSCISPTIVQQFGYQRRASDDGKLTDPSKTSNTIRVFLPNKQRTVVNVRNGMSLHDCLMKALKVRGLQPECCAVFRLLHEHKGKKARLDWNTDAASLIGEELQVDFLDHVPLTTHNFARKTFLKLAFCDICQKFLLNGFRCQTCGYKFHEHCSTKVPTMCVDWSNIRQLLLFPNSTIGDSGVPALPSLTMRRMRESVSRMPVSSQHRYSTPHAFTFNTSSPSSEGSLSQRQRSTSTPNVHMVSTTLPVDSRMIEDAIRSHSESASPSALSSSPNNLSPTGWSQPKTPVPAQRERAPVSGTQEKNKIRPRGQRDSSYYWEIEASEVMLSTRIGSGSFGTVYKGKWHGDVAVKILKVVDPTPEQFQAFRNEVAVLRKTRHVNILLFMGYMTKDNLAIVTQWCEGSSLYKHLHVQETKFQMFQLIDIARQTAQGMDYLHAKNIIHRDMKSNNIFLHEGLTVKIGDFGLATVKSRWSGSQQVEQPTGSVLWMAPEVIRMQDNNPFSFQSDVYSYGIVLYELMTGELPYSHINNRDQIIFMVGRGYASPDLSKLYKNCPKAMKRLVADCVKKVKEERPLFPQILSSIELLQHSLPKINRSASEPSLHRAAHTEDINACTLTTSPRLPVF
Chain of Tyrosine-protein kinase HCK (Homo sapiens) (P08631 2-526 limits assumed): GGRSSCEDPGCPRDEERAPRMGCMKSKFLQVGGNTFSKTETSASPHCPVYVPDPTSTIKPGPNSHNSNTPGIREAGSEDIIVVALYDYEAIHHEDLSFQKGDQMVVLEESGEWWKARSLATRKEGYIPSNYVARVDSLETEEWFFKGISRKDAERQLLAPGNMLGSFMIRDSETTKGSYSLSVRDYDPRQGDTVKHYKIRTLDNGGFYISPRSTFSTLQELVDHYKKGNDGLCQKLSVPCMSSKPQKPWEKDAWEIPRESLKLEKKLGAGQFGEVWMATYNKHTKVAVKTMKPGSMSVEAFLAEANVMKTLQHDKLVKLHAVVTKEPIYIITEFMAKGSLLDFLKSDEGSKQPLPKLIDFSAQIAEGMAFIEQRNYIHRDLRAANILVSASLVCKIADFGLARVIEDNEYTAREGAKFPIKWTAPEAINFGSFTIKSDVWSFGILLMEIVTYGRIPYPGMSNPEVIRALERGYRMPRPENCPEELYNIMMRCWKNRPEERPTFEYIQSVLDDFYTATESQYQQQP
Chain of Fibroblast growth factor receptor 2 (Homo sapiens) (P21802 22-821 limits assumed): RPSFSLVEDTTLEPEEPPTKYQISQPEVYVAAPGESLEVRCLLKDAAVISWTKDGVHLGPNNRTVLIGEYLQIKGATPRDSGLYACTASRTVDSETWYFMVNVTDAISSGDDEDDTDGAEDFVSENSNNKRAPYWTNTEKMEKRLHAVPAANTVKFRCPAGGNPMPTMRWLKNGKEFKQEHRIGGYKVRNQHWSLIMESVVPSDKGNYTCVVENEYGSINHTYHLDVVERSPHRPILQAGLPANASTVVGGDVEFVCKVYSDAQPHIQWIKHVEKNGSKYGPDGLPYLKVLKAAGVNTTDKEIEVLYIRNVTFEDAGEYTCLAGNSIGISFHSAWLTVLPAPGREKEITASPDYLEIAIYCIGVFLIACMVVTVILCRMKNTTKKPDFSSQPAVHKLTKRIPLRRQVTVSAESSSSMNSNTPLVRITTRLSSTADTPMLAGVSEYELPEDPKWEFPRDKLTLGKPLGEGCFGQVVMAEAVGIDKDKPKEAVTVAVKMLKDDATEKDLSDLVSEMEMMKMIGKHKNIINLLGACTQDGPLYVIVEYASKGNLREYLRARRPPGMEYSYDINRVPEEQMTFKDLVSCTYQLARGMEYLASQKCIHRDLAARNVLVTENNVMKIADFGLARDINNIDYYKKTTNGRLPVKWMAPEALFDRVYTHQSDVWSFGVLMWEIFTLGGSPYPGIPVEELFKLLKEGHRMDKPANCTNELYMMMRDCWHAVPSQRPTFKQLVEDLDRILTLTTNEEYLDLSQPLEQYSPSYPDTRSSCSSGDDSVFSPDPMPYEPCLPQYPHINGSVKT
Chain of Mitogen-activated protein kinase 1 (Homo sapiens) (P28482 whole entry, the tested form may be a part): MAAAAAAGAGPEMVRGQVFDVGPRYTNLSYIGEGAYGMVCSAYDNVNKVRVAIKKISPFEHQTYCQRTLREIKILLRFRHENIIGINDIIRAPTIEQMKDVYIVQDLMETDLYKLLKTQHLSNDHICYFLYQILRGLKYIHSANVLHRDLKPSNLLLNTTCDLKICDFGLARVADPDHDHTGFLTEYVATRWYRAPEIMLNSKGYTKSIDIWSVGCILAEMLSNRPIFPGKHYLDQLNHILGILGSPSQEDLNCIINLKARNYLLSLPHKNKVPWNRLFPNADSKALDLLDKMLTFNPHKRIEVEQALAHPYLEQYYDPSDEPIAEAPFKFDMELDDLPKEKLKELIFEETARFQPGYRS
Chain of Protein kinase C beta type (Homo sapiens) (P05771 2-671 limits assumed): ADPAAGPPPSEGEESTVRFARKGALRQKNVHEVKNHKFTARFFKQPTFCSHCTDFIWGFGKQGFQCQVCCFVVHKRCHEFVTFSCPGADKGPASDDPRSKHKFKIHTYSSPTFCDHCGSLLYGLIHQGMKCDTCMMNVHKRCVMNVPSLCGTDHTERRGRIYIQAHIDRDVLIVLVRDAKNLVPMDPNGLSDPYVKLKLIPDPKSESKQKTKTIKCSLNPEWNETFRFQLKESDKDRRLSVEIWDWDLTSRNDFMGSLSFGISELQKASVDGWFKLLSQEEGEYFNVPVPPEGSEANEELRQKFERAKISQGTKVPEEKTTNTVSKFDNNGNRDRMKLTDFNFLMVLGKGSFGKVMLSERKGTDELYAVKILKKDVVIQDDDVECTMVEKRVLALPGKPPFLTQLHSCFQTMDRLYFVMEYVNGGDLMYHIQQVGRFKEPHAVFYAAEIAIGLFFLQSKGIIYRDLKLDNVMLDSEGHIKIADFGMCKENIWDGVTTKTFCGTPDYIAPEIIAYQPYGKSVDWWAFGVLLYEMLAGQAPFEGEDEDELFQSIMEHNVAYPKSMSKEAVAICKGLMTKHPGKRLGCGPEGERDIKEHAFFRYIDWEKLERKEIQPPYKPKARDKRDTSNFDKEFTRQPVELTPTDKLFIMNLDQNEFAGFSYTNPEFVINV
Chain of Serine/threonine-protein kinase pim-1 (Homo sapiens) (P11309 whole entry, looked up, the tested form may be a part): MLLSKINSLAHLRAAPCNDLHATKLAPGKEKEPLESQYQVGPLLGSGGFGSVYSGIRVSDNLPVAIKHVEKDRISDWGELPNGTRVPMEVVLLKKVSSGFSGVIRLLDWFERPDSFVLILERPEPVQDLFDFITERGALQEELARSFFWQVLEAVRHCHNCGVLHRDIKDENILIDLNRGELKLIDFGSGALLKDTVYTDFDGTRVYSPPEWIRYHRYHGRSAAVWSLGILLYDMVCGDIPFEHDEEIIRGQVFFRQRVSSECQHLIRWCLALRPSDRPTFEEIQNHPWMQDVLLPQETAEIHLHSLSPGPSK

Clc1ccc(C2(c3ccc(-c4ncnc5[nH]cnc45)cc3)CCNCC2)cc1
inhibition [1]: 2.5%
inhibition [2]: 1%
inhibition [3]: 38.5%

NCC1CCN(c2ncnc3[nH]ccc23)CC1
inhibition [4]: 9%
inhibition [5]: 2.5%

NC1CCN(c2ncnc3[nH]ccc23)CC1
inhibition [6]: 1.5%

c1cnc2[nH]ccc2c1
inhibition [7]: 90.5%
inhibition [8]: 71%

NC1(Cc2ccc(Cl)cc2)CCN(c2ncnc3[nH]ccc23)CC1
inhibition [9]: 7%

c1nc(N2CCOCC2)c2nc[nH]c2n1
inhibition [10]: 68%

NCC1CN(c2ncnc3[nH]c4cnccc4c23)CCO1 (configuration not stated)
inhibition [11]: 10%

CNCc1ccc(-c2ncnc3[nH]cnc23)cc1
inhibition [12]: 77%
